US20260158014A1, “METHODS OF ADMINISTERING VOXELOTOR” (Global Blood Therapeutics, Inc., priority 2021, published 2026)
Entries after “also recorded” stand apart in the source; their conditions may differ.

Assays:
OATP1B1 = OATP1B1 (Homo sapiens, UniProt Q9Y6L6); assay: In vitro transporter study; type: in vitro ADME
pregnant rats = assay: Embryo-fetal development study in rats; type: in vivo, rat; conditions: oral 15, 50, 250 mg/kg/day, gestation days 7 through 17
Protocol: (§1) In embryo-fetal development studies, voxelotor was administered orally to pregnant rats at 15, 50, and 250 mg/kg/day (gestation days 7 through 17) and rabbits at 25, 75, and 150 mg/kg/day (gestation days 7 through 19) through organogenesis.

CYP3A4 = CYP3A4 (Homo sapiens, UniProt P08684); assay: Clinical DDI: strong CYP3A4 inhibitor itraconazole on voxelotor; type: in vivo; set-up: host or cells: Simcyp PBPK simulation; conditions: healthy subjects
[1] = test system: CYP3A4, CYP3A5, CYP2B6, CYP2C19, CYP2C9, UGT1A1, and UGT1A9; assay: Metabolism, in vitro and in vivo studies; type: in vitro ADME
BCRP = BCRP (Homo sapiens, UniProt Q9UNQ0); assay: In vitro transporter study; type: in vitro ADME
MATE1 = MATE1 (Homo sapiens, UniProt Q96FL8); assay: In vitro transporter study; type: in vitro ADME
BSEP = BSEP (Homo sapiens, UniProt O95342); assay: In vitro transporter study; type: in vitro ADME
patients with SCD = assay: HOPE Phase 3 trial: efficacy; type: in vivo, human
Protocol: The efficacy and safety of OXBRYTA in SCD was evaluated in HOPE, a Phase 3 randomized, double-blind, placebo-controlled, multicenter trial [NCT 03036813]. In this study, 274 patients were randomized to daily oral administration of OXBRYTA 1,500 mg (N=90), OXBRYTA 900 mg (N=92), or placebo (N=92). Patients were included if they had from 1 to 10 vaso-occlusive crisis (VOC) events within 12 months prior to enrollment and baseline hemoglobin (Hb) ≥5.5 to ≤10.5 g/dL. Eligible patients on stable doses of hydroxyurea for at least 90 days were allowed to continue hydroxyurea therapy throughout the study. Randomization was stratified by patients already receiving hydroxyurea (yes, no), geographic region (North America, Europe, Other), and age (12 to <17 years, 18 to 65 years). The trial excluded patients who received red blood cell (RBC) transfusions within 60 days and erythropoietin within 28 days of enrollment, had renal insufficiency, uncontrolled liver disease, were pregnant, or lactating.
The majority of patients had HbSS or HbS/beta^0-thalassemia genotype (90%) and were receiving background hydroxyurea therapy (65%). The median age was 24 years (range: 12 to 64 years); 46 (17%) patients were 12 to <17 years. Median baseline Hb was 8.5 g/dL (5.9 to 10.8 g/dL). One hundred and fifteen (42%) had 1 VOC event and 159 (58%) had 2 to 10 events within 12 months prior to enrollment. In the OXBRYTA 1,500 mg group, 63 (70%) patients completed the study through Week 72.
Efficacy was based on Hb response rate defined as a Hb increase of >1 g/dL from baseline to Week 24 in patients treated with OXBRYTA 1,500 mg versus placebo. […] No outlier subgroups were observed. The distribution of Hb change from baseline for individual patients completing 24 weeks of treatment with OXBRYTA 1,500 mg or placebo is depicted in FIG. 2.
Additional efficacy evaluation included change in Hb and percent change in indirect bilirubin and percent reticulocyte count from baseline to Week 24 (Table 15).

[2] = PK in subjects with hepatic impairment; type: in vivo, human
[3] = Voxelotor in milk of lactating rats; type: in vivo, rat
[4] = Excretion of radiolabeled voxelotor; type: in vivo
CYP2D6 = molecular target: T1, CYP2D6 (Homo sapiens, UniProt P10635); assay: Effect of voxelotor on CYP450 enzymes in vivo: CYP2D6
T1 construct: endogenous in cells; host or cells: human subjects (in vivo)

OCT2 = OCT2 (Homo sapiens, UniProt O15244); assay: In vitro transporter study; type: in vitro ADME
[5] = Clinical pharmacokinetics after oral administration; type: in vivo, human
[6] = Tablet for oral suspension versus oral tablet exposure in healthy subjects; type: in vivo, human
[7] = test system: bacterial reverse mutation; assay: Reverse mutation bacterial (Ames) test; type: cell-based
pregnant rabbits = assay: Embryo-fetal development study in rabbits; type: in vivo, rabbit; conditions: oral 25, 75, 150 mg/kg/day, gestation days 7 through 19
Protocol: as §1

Hb = assay: Pharmacodynamics: Hb oxygen affinity (p50) and clinical measures of hemolysis; type: in vivo
[8] = Physicochemical description (solubility, hygroscopicity); conditions: crystalline Form II free base
rat = assay: Rat Comet assay; conditions: in vivo
OAT3 = OAT3 (Homo sapiens, UniProt Q8TCC7); assay: In vitro transporter study; type: in vitro ADME

Sequence of BCRP (Q9UNQ0 whole entry, species assumed): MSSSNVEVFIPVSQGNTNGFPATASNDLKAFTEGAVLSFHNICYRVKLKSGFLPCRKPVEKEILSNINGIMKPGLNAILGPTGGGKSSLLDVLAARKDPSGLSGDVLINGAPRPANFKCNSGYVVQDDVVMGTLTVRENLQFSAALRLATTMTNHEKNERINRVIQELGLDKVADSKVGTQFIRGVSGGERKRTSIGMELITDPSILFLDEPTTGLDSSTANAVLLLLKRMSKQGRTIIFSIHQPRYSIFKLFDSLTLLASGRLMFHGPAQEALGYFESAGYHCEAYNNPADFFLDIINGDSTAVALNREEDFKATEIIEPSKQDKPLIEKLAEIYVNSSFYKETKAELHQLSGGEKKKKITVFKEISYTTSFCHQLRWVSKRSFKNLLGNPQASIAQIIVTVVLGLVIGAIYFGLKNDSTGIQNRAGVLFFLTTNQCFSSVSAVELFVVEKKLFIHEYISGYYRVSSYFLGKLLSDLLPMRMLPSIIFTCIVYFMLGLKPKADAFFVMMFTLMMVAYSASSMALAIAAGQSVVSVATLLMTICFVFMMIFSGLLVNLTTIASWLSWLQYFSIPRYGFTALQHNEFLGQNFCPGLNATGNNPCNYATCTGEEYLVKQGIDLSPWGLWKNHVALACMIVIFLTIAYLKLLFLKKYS
Sequence of OATP1B1 (Q9Y6L6 whole entry, species assumed): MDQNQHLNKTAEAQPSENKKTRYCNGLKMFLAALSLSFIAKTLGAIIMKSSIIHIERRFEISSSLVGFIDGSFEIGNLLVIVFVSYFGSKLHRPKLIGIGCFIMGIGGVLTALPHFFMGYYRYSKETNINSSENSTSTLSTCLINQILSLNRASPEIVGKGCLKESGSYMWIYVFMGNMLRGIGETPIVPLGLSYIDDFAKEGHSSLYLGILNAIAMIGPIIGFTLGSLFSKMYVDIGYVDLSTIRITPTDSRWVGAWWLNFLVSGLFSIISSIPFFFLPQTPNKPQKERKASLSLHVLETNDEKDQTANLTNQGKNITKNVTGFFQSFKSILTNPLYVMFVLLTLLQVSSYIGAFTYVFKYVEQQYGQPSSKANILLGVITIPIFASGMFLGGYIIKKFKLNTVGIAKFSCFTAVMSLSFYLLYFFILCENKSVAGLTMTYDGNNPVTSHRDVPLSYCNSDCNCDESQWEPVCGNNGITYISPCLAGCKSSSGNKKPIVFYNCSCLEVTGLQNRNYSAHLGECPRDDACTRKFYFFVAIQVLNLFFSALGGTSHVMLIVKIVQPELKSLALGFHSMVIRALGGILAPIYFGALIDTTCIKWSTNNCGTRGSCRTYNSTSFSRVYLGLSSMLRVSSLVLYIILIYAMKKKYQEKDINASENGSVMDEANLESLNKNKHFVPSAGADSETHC
Sequence of BSEP (O95342 whole entry, species assumed): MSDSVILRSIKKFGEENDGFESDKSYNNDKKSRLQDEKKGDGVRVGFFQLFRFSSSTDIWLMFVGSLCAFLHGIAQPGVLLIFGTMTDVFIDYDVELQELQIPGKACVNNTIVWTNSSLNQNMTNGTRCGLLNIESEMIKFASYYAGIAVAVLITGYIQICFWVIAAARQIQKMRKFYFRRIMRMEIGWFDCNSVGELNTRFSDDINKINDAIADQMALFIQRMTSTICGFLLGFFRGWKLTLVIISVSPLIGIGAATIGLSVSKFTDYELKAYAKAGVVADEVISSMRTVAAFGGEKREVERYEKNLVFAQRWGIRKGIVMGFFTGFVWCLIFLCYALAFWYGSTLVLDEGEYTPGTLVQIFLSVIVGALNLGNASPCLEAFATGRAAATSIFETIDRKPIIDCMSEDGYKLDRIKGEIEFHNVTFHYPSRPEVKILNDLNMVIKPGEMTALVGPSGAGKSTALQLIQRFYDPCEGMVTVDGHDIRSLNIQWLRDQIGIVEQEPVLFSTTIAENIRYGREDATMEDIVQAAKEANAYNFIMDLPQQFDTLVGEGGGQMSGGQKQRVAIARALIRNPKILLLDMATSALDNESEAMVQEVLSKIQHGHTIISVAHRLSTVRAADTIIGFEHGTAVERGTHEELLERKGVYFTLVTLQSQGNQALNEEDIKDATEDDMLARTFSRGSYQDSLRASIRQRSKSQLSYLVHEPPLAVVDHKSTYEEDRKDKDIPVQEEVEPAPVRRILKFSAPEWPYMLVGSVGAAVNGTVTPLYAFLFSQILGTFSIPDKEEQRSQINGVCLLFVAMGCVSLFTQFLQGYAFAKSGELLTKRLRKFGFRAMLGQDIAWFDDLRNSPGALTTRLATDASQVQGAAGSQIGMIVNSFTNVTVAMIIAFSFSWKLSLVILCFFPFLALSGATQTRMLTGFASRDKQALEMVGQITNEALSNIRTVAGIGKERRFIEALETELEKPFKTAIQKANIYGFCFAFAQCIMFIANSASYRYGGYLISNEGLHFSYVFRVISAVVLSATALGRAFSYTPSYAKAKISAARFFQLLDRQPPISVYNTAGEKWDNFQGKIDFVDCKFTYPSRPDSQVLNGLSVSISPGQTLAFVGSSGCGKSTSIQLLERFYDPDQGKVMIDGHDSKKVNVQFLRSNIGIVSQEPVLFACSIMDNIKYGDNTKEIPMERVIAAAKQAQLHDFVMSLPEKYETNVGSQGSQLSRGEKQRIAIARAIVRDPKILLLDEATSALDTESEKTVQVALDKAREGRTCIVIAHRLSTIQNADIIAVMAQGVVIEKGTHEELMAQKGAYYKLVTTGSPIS
Sequence of OCT2 (O15244 whole entry): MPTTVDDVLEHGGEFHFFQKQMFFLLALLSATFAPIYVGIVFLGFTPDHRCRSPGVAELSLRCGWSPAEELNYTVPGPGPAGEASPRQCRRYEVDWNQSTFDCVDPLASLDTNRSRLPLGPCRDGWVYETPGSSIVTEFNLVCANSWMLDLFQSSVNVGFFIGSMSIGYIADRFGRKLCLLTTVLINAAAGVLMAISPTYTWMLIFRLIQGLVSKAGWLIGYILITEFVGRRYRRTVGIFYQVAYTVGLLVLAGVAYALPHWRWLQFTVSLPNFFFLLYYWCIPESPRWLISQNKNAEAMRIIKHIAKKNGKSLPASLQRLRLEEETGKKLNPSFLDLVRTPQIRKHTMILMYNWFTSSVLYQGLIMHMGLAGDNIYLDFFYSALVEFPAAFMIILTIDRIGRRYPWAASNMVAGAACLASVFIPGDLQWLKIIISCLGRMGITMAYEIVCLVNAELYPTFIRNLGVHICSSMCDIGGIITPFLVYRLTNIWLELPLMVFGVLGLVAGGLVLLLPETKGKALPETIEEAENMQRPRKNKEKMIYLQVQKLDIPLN
Sequence of MATE1 (Q96FL8 whole entry, species assumed): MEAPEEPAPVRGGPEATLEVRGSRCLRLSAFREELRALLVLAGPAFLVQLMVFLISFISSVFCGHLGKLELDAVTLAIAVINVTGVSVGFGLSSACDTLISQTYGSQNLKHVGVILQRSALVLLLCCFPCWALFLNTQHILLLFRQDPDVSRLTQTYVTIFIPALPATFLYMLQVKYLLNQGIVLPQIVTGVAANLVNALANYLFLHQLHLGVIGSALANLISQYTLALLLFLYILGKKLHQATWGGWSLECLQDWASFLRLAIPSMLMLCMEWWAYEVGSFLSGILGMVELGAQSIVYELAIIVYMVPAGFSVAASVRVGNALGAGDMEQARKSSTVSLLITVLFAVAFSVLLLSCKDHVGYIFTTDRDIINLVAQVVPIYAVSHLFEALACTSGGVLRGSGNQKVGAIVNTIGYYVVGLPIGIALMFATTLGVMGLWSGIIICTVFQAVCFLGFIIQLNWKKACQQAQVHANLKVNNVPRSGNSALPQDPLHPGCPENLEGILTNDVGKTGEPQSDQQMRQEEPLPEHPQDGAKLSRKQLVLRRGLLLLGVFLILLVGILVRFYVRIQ
T1 sequence (P10635 whole entry): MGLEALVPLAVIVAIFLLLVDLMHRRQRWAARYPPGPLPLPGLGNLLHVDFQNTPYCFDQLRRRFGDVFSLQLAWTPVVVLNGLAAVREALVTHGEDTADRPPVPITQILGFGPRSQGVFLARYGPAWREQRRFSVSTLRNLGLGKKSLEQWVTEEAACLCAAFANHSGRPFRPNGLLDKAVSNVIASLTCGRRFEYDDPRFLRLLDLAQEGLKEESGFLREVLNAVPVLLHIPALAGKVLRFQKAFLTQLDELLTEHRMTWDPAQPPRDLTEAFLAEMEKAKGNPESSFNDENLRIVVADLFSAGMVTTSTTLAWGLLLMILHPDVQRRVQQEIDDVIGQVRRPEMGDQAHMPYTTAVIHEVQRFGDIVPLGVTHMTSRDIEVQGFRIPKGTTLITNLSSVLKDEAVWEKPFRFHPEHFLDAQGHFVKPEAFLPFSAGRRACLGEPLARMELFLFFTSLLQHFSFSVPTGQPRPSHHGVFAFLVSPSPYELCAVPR
Sequence of CYP3A4 (P08684 whole entry): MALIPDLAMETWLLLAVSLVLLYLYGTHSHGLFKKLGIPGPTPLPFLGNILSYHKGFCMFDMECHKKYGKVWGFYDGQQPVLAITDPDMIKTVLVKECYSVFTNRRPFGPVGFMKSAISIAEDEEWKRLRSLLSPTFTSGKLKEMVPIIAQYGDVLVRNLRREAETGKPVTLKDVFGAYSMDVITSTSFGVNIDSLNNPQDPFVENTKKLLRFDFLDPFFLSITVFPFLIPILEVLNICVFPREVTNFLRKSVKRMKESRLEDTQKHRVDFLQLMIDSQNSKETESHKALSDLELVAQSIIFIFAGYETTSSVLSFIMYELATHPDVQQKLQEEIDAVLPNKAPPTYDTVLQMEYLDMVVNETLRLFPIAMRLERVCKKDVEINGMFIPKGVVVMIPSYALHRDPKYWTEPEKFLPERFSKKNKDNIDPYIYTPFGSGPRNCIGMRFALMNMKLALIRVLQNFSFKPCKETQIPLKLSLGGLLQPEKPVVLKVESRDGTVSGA

CC(C)n1nccc1-c1ncccc1COc1cccc(O)c1C=O [voxelotor, 2-hydroxy-6-((2-(1-isopropyl-1H-pyrazol-5-yl)pyridin-3-yl)methoxy)benzaldehyde]
OATP1B1 inhibition (OATP1B1): not an inhibitor
substrate of OATP1B1 (OATP1B1): not a substrate
developmental outcome (pregnant rats): no adverse developmental effects; also recorded: no evidence of adverse developmental outcomes
increase of voxelotor AUC with itraconazole (CYP3A4): 11%
enzymes mediating metabolism [1]: CYP3A4, CYP3A5, CYP2B6, CYP2C19, CYP2C9, UGT1A1, and UGT1A9
BCRP inhibition (BCRP): not an inhibitor
substrate of BCRP (BCRP): not a substrate
MATE1 inhibition (MATE1): not an inhibitor
BSEP inhibition (BSEP): not an inhibitor
substrate of BSEP (BSEP): not a substrate
adjusted mean change from baseline to Week 24 in hemoglobin (patients with SCD; 1,500 mg QD, N=90): 1.1 g/dL
adjusted mean percent change from baseline to Week 24 in indirect bilirubin (patients with SCD; 1,500 mg QD, N=90): −29.1%
adjusted mean percent change from baseline to Week 24 in percent reticulocyte count (patients with SCD; 1,500 mg QD, N=90): −18.0%
Hb response rate (Hb increase >1 g/dL from baseline to Week 24) (patients with SCD; 1,500 mg once daily, 46/90, adults and pediatric patients 12 years and older): 51%
whole blood AUC higher vs normal hepatic function, mild hepatic impairment ([2]; Child Pugh A): 14%
whole blood AUC higher vs normal hepatic function, moderate hepatic impairment ([2]; Child Pugh B): 15%
whole blood AUC higher vs normal hepatic function, severe hepatic impairment ([2]; Child Pugh C): 90%
presence in milk ([3]; lactating rats): detected in milk
plasma concentrations relative to concentration in milk ([3]; rats): higher
dose and metabolites excreted in urine [4]: 35.5%
dose and metabolites excreted into feces [4]: approximately 62.6%
dose excreted unchanged in feces [4]: 33.3%
dose excreted unchanged in urine [4]: 0.08%
CYP2D6 inhibition in vivo (CYP2D6): not
OCT2 inhibition (OCT2): not an inhibitor
time to steady-state after repeated administration ([5]; patients with SCD): ≤ 8 days
dose linearity of PK ([5]; single or multiple doses, whole blood, plasma, RBCs): linear
exposures, tablet for oral suspension dispersed in water vs oral tablet swallowed whole [6]: comparable
genotoxicity, Ames test [7]: not genotoxic
developmental outcome (pregnant rabbits): no adverse developmental effects; also recorded: no evidence of adverse developmental outcomes
clinical measures of hemolysis (indirect bilirubin and % reticulocytes) (Hb; in vivo): dose-dependent reduction
Hb oxygen affinity as determined by change in p50 (Hb; linearly correlated with voxelotor exposure): dose-dependent increase
hygroscopicity [8]: non-hygroscopic
solubility in common organic solvents such as acetone and toluene [8]: highly soluble
solubility in water [8]: insoluble in water
genotoxicity, rat Comet assay (rat): not genotoxic
OAT3 inhibition (OAT3): not an inhibitor
